Patent US20250296971A1, “GASTRIC INHIBITORY PEPTIDE RECEPTOR LIGANDS” (priority 2021, published 2025)
Where two headings read alike, the source gives them in different places. *1 amine or outer side, *2 acyl side, *3 side chain or, on linkers, in order; H or OH if unused. Where a SMILES comes first, the peptide text is derived from it. Bridges are numbered along the chain shown (N, C = ends). Side-chain parts run from the residue outwards. [ ]: non-standard residue; d: D form. The star is where a group is joined. NH(1-deoxy-D-glucityl) = OC[C@@H](O)[C@@H](O)[C@H](O)[C@@H](O)CN*; DOTA = O=C(O)CN1CCN(CC(=O)O)CCN(CC(=O)*)CCN(CC(=O)O)CC1; Trp(5-Cl) = N[C@@H](Cc1c[nH]c2ccc(Cl)cc12)C(=O)O; Pyridine(2,6-diCH2) = c1cc(C[*:1])nc(C[*:2])c1; Phe(3-Cl) = N[C@@H](Cc1cccc(Cl)c1)C(=O)O; Pro(4R-NH2) = N[C@H]1CN[C@H](C(=O)O)C1; 1Nal = N[C@@H](Cc1cccc2ccccc12)C(=O)O; mXylylene = c1cc(C[*:1])cc(C[*:2])c1; Glutaryl = O=C(CCCC(=O)[*:2])[*:1]; pXylylene = c1cc(C[*:2])ccc1C[*:1]; Hyp = O=C(O)[C@@H]1C[C@@H](O)CN1; X1 = O=C(CN1CCC(N[*:1])CC1)[*:2]; Pip = O=C(O)[C@@H]1CCCCN1; Api = NC1(C(=O)O)CCNCC1; Thp = NC1(C(=O)O)CCOCC1; AEEA = NCCOCCOCC(=O)O; Aib = CC(C)(N)C(=O)O; Bn = c1ccc(C*)cc1

Biological target: T1, GIPR (CHO-K1-hGIPR cells) (Homo sapiens, UniProt P48546)
T1 construct: host or cells: CHO-K1
T1 sequence (P48546 22-466): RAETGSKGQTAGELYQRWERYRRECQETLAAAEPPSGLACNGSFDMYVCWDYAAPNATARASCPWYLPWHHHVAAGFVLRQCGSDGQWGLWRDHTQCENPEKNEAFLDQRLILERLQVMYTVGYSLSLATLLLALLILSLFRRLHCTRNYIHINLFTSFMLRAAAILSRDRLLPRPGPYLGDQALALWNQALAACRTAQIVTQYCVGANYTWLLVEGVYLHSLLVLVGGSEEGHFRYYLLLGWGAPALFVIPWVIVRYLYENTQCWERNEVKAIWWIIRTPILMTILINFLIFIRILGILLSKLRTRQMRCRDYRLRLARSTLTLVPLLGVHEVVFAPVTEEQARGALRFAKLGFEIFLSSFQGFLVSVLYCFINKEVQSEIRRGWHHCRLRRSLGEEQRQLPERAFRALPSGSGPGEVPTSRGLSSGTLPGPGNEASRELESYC
Assay: FACS binding assay
Settings: read-out: pIC50 Category (converted)
Method in brief: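 Peptide binding read by flow cytometry as APC-channel median fluorescence, fitted with a four-parameter logistic to yield EC50 or IC50. Cells were hGIPR-transfected CHO-K1 in PBS with 1% FCS, detected with 1 μg/mL APC-streptavidin, 30 min on ice.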

[1] = competition with 20 nM GIP-057, 4° C. for 1 hour

SMILES	IC50 [1] [nM]	IC50 (competition with 20 nM GIP-057, 4° C., 1 hour) [nM]
CC[C@H](C)[C@@H]1NC(=O)[C@H](CC(C)C)NC(=O)[C@H](C)NC(=O)[C@@H](NC(=O)[C@H](CC(C)C)NC(=O)[C@H](CCC(=O)O)NC(=O)[C@@H]2CCCN2C(=O)[C@H](Cc2c[nH]c3ccccc23)NC(=O)[C@H](Cc2c[nH]c3ccccc23)NC(=O)[C@H](CC(=O)O)NC(=O)[C@H](Cc2ccc(O)cc2)NC(=O)[C@@H](N)CCSC)CSCc2ccc(cc2)CSC[C@@H](C(N)=O)NC1=O [GIP-331] (H-MYDWWPELCALIC-NH2; linker 9-13 via pXylylene)	> 1000	
CC[C@H](C)[C@@H]1NC(=O)[C@H](CC(C)C)NC(=O)C(C)(C)NC(=O)[C@@H](NC(=O)[C@H](CC(C)C)NC(=O)[C@H](CCC(=O)O)NC(=O)[C@@H]2CCCCN2C(=O)[C@H](Cc2cccc3ccccc23)NC(=O)[C@H](Cc2c[nH]c3ccccc23)NC(=O)[C@H](CC(=O)O)NC(C)=O)CSCc2cccc(c2)CSC[C@@H](C(N)=O)NC1=O [GIP-253, Ac-Asp-Trp-1Ni-Pip-Glu-Leu-[Cys(3MeBn)-Aib-Leu-Ile-Cys]-NH2] (Ac-DW[1Nal][Pip]ELC[Aib]LIC-NH2; linker 7-11 via mXylylene)	10 to 79.4	
CC[C@H](C)[C@@H]1NC(=O)[C@H](CC(C)C)NC(=O)C2(CCOCC2)NC(=O)[C@@H](NC(=O)[C@@H](CC(C)C)NC(=O)[C@H](CCC(=O)O)NC(=O)[C@@H]2C[C@@H](O)CN2C(=O)[C@H](Cc2cccc(Cl)c2)NC(=O)[C@H](Cc2c[nH]c3ccccc23)NC(=O)[C@H](CC(=O)O)NC(C)=O)CSCc2cccc(n2)CSC[C@@H](C(N)=O)NC1=O [GIP-320, Ac-Asp-Trp-Mcf-Hyp-Glu-leu-[Cys(2Lut)-Thp-Leu-Ile-Cys]-NH2] (Ac-DW[Phe(3-Cl)][Hyp]E[dL]C[Thp]LIC-NH2; linker 7-11 via Pyridine(2,6-diCH2))	100 to 794	
CC[C@H](C)[C@@H]1NC(=O)[C@H](CC(C)C)NC(=O)C2(CCN(C(=O)CCCC(=O)NC[C@H](O)[C@@H](O)[C@H](O)[C@H](O)CO)CC2)NC(=O)[C@@H](NC(=O)[C@@H](CC(C)C)NC(=O)[C@H](CCC(=O)O)NC(=O)[C@@H]2C[C@@H](N)CN2C(=O)[C@H](Cc2c[nH]c3ccc(Cl)cc23)NC(=O)[C@H](Cc2c[nH]c3ccccc23)NC(=O)[C@H](CC(=O)O)NC(=O)[C@@H](CCC(=O)NC[C@H](O)[C@@H](O)[C@H](O)[C@H](O)CO)NC(=O)COCCOCCNC(=O)CN2CCN(CC(=O)O)CCN(CC(=O)O)CCN(CC(=O)O)CC2)CSCc2cccc(n2)CSC[C@@H](C(=O)NC2CCN(CC(=O)N[C@H](CCC(=O)NC[C@H](O)[C@@H](O)[C@H](O)[C@H](O)CO)C(N)=O)CC2)NC1=O [GIP-044, DOTA-02Oc-glu(AGLU)-Asp-Trp-5Clw-Tap-Glu-leu-[Cys(2Lut)-Apc(AGLU-Glutar)-Leu-Ile-Cys]-APAc-glu(AGLU)-NH2] ({DOTA-AEEA}-[dE](NH(1-deoxy-D-glucityl))DW[Trp(5-Cl)][Pro(4R-NH2)]E[dL]C[Api]([Glutaryl-NH(1-deoxy-D-glucityl)])LIC[X1][dE](NH(1-deoxy-D-glucityl))-NH2; linker 8-12 via Pyridine(2,6-diCH2))		< 10
CC[C@H](C)[C@H](NC(=O)[C@H](CC(C)C)NC(=O)[C@H](C)NC(=O)[C@H](CSCc1ccccc1)NC(=O)[C@H](CC(C)C)NC(=O)[C@H](CCC(=O)O)NC(=O)[C@@H]1CCCN1C(=O)[C@H](Cc1c[nH]c2ccccc12)NC(=O)[C@H](Cc1c[nH]c2ccccc12)NC(=O)[C@H](CC(=O)O)NC(=O)[C@H](Cc1ccc(O)cc1)NC(=O)[C@@H](N)CCSC)C(=O)N[C@@H](CSC)C(N)=O [GIP-368] (H-MYDWWPELC(Bn)ALIC(Me)-NH2)	100 to 794	
CC(=O)N[C@@H](CC(=O)O)C(=O)N[C@@H](Cc1c[nH]c2ccccc12)C(=O)N[C@@H](Cc1c[nH]c2ccc(Cl)cc12)C(=O)N1C[C@H](O)C[C@H]1C(=O)N[C@@H](CCC(=O)O)C(=O)N[C@H](CC(C)C)C(=O)N[C@H]1CSCc2cccc(n2)CSC[C@@H](C(N)=O)NC(=O)[C@H](Cc2c[nH]c3ccccc23)NC(=O)[C@H](CC(C)C)NC(=O)C2(CCOCC2)NC1=O [GIP-355, Ac-Asp-Trp-5Clw-Hyp-Glu-leu-[Cys(2Lut)-Thp-Leu-Trp-Cys]-NH2] (Ac-DW[Trp(5-Cl)][Hyp]E[dL]C[Thp]LWC-NH2; linker 7-11 via Pyridine(2,6-diCH2))	> 1000	
